These results are taken from patent US20180193412A1, “Method of In Vivo Treatment” (Hexima Limited, priority 2015, published 2018).

One assay has as its system T. albicans. Kind of assay: Inhibition of growth of C. albicans by plant defensins, Example 1 (microtitre A595 antifungal assay). In kind it is cell-based. As to conditions: Table 3; ½ strength PDB, 30° C., A595. As to the method: (§1) The inhibitory effects of the plant defensins on the growth of Trichophyton rubrum, T. interdigitale, Microsporum fulvum and C. albicans (all obtained from the National Mycology Reference Centre, South Australia Pathology at the Women's and Children's Hospital, Adelaide, Australia) are measured essentially as described by Broekaert et al. (1990) FEMS Microbiol Lett 69:55-59.
(§2) Spores of T. rubrum, T. interdigitale and M. fulvum are isolated from sporulating fungus growing on ½ strength Sabouraud dextrose agar. Spores were removed from the plates by the addition of ½ strength potato dextrose broth (PDB). C. albicans cells are grown in Yeast Peptone Broth (YPD) for 16 h. Spore and cell concentrations are measured using a hemocytometer.
(§3) Antifungal assays are conducted in 96 well microtitre plates essentially as herein described. Wells are loaded with 20 μL of filter sterilized (0.22 Ξ m syringe filter, Millipore) defensin (10× stock for each final concentration) or water and 80 μL of 5×10^4 spores/mL (T. rubrum, T. interdigitale, M. fulvum) or 5,000 cells/mL (C. albicans) in ½ strength PDB. The plates are incubated at 30° C. Fungal growth is assayed by measuring optical density at 595 nm (A595) using a microtitre plate reader (SpectraMax Pro M2; Molecular Devices. Growth is allowed to proceed until the optical density (OD) of the fungus in the absence of any test defensin reached an OD of 0.2. Each test is performed in duplicate.

The subject of the next assay is C. neoformans. Briefly: Inhibition of growth of Cryptococcus neoformans, Example 2 antifungal assay. The assay is classed as cell-based. The conditions noted are these: ½ strength PDB, 30° C., A595. As to the method: (§4) The inhibitory effects of the plant defensins on the growth of Candida albicans, Aspergillus fumigatus (obtained from the National Mycology Reference Centre, South Australia Pathology at the Women's and Children's Hospital, Adelaide, Australia), C. glabrata, C. tropicalis, A. flavus, A. niger, A. fumigants, Cryptococcus neoformans and C. gattii (obtained from Dee Carter, University of Sydney, New South Wales, Australia) are measured essentially as described by Broekaert et al. (1990) FEMS Microbiol Lett 69:55-59.
(§5) Spores of A. flavus. A. niger and A. fumigatus are isolated from sporulating fungus growing on ½ strength Sabouraud dextrose agar. Spores were removed from the plates by the addition of ½ strength potato dextrose broth (PDB). C. albicans, C. glabrata, C. tropicalis, C. neoformans and C. gattii cells are grown in Yeast Peptone Broth (YPD) for 16 h. Spore and cell concentrations are measured using a hemocytometer.
as §3, with “μm” for “Ξ m”, “(A. flavus, A. niger, A. fumigatus),” for “(T. rubrum, T. interdigitale, M. fulvum) or”, “albicans, C. glabrata, C. tropicalis) or 1×10^6 cells/mL (C. neoformans, C. gattii)” for “albicans)”

In another assay the test system is T. interdigitale. Kind of assay: Inhibition of growth of T. interdigitale by plant defensins (microtitre A595 antifungal assay). In kind it is cell-based, Trichophyton interdigitale. As to conditions: ½ strength PDB, 30° C. As for the experimental part:
as §1, §2, §3

In assay [1] the test system is clinical isolates of T. rubrum (14-01, 14-02, 14-03, 13-04). Briefly: Inhibition of growth of clinical isolates of T. rubrum (FIG. 2). In kind it is cell-based, Trichophyton rubrum. As to conditions: all four clinical isolates. As to the method:
FIG. 2(A) is a graphical representations showing the effect of the plant defensins NaD1 (dashed line) and HXL008 (solid line) on the growth of clinical isolate 14-01 of Trichophyton rubrum in vitro. Fungal growth was measured by the increase in optical density at 595 nm (A595) achieved 72 hours after inoculation of the growth medium and is plotted as a percentage of growth relative to a no-protein control (vertical axis) versus protein concentration (μg/mL, horizontal axis).
FIG. 2(B) is a graphical representation showing the effect of the plant defensins NaD1 (dashed line) and HXL008 (solid line) on the growth of clinical isolate 14-02 of Trichophyton rubrum in vitro. Fungal growth was measured by the increase in optical density at 595 nm (A595) achieved 72 hours after inoculation of the growth medium and is plotted as a percentage of growth relative to a no-protein control (vertical axis) versus protein concentration (μg/mL, horizontal axis). […]
Antifungal assays are conducted in 96 well microtitre plates essentially as herein described. […] Fungal growth is assayed by measuring optical density at 595 nm (A595) using a microtitre plate reader (SpectraMax Pro M2; Molecular Devices. Growth is allowed to proceed until the optical density (OD) of the fungus in the absence of any test defensin reached an OD of 0.2. Each test is performed in duplicate.

For the next assay, the system named is A. fumigatus. Kind of assay: Inhibition of growth of Aspergillus fumigatus, Example 2 antifungal assay. In kind it is cell-based. As to conditions: ½ strength PDB, 30° C., A595. As for the experimental part: as §4, §5
as §3, with “μm” for “Ξ m”, “(A. flavus, A. niger, A. fumigatus),” for “(T. rubrum, T. interdigitale, M. fulvum) or”, “albicans, C. glabrata, C. tropicalis) or 1×10^6 cells/mL (C. neoformans, C. gattii)” for “albicans)”

Assay [2] relates to Trichophyton rubrum, T. interdigitale, Microsporum fulvum and C. albicans. Briefly: Inhibition assays of Example 1, summary across the range of fungal pathogens. The assay is classed as cell-based. The conditions noted are these: summary of Table 3, at the concentrations tested. As to the method: as §1, §2, §3

“HXL008: Class I plant defensin from Picramnia pentandra (KVCTKPSKFFKGLCGTDGACTTACRKEGLHSGYCQLKGFLNSVCVCRKHC; HXL008 Picramnia pentandra)”: the “IC50 against T. albicans” value in the assay with T. albicans came to 20 µg/mL. Further, the “IC50 against C. neoformans” value with C. neoformans is 2.5 µg/mL. For the same substance, in the assay with T. interdigitale, the “IC50 against T. interdigitale” value is 3.5 µg/mL. Moreover, in assay [1], the “Growth inhibition of T. rubrum clinical isolates compared with NaD1” value was “inhibited growth at a lower concentration than NaD1”. The “IC50 against A. fumigatus” value in the assay with A. fumigatus came out at 7.5 µg/mL. The “Activity across the range of fungal pathogens” value in assay [2] is listed as “most effective”.
